Reference: PubChem BioAssay AID328 (DTP/NCI, 2004)
Where “and” joins values, the source holds several entries; their conditions need not be identical. Equal entries are not always repeated. Inconclusive results and toxic doses are left out.

Tested on: BDF1 mice, P388 leukemia ip, median survival T/C
Experiment: NCI In Vivo Anticancer Drug Screen. Data for tumor model P388 Leukemia (intraperitoneal) in B6D2F1 (BDF1) mice
Conditions: endpoint: median survival time, higher = longer survival
Summary of the method: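 Steps: implant the tumour, treat one group with compound and another with vehicle, record survival, then divide treated by control.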

[1] = dose: 100.0 mg/kg/injection, schedule: Q01DX009 (ip), vehicle: Klucel (hydroxypropylcellulose) (HPC)
[2] = dose: 25.0 mg/kg/injection, schedule: Q01DX009 (ip), vehicle: saline
[3] = dose: 50.0 mg/kg/injection, schedule: Q01DX009 (ip), vehicle: saline
[4] = dose: 100.0 mg/kg/injection, schedule: Q01DX009 (ip), vehicle: saline
[5] = dose: 50.0 mg/kg/injection, schedule: Q01DX005 (ip), vehicle: Klucel (hydroxypropylcellulose) (HPC)

O=C1N[C@@H]([C@H]2CC[C@H](Cl)CN2)C(=O)N[C@H]1[C@H]1CC[C@H](Cl)CN1
T/C (dose: 0.1 mg/kg/injection, schedule: Q01DX010 (ip), vehicle: saline): 154 % of control | T/C (dose: 0.2 mg/kg/injection, schedule: Q01DX010 (ip), vehicle: saline): 181 % of control | T/C (dose: 0.4 mg/kg/injection, schedule: Q01DX010 (ip), vehicle: saline): 227 % of control | T/C (dose: 1.44 mg/kg/injection, schedule: Q04DX003 (ip), vehicle: saline): 170 % of control | T/C (dose: 1.44 mg/kg/injection, schedule: Q04DX003 (ip), vehicle: water): 179 % of control | T/C (dose: 2.4 mg/kg/injection, schedule: Q04DX003 (ip), vehicle: saline): 184 % of control | T/C (dose: 2.4 mg/kg/injection, schedule: Q04DX003 (ip), vehicle: water): 192 % of control | T/C (dose: 2.5 mg/kg/injection, schedule: Q01DX001 (ip), vehicle: saline): 177 % of control | T/C (dose: 4.0 mg/kg/injection, schedule: Q04DX003 (ip), vehicle: saline): 252 % of control | T/C (dose: 4.0 mg/kg/injection, schedule: Q04DX003 (ip), vehicle: water): 259 % of control | T/C (dose: 5.0 mg/kg/injection, schedule: Q01DX001 (ip), vehicle: saline): 209 % of control | T/C (dose: 6.67 mg/kg/injection, schedule: Q04DX003 (ip), vehicle: saline): 118 % of control | T/C (dose: 6.67 mg/kg/injection, schedule: Q04DX003 (ip), vehicle: water): 118 % of control

CCN(CC)P(=O)(N1CC1C)N1CC1C (stereo not given)
T/C (dose: 4.4 mg/kg/injection, schedule: Q01DX009 (ip), vehicle: saline): 109 % of control | T/C (dose: 6.6 mg/kg/injection, schedule: Q01DX009 (ip), vehicle: saline): 109 % of control | T/C (dose: 10.0 mg/kg/injection, schedule: Q01DX009 (ip), vehicle: saline): 104 % of control | T/C (dose: 12.5 mg/kg/injection, schedule: Q04DX003 (ip), vehicle: saline): 116 % of control | T/C (dose: 13.2 mg/kg/injection, schedule: Q01DX009 (ip), vehicle: saline): 118 % of control | T/C (dose: 15.0 mg/kg/injection, schedule: Q01DX009 (ip), vehicle: saline): 113 % of control | T/C (dose: 20.0 mg/kg/injection, schedule: Q01DX009 (ip), vehicle: saline): 157 % of control and 180 % of control | T/C (dose: 25.0 mg/kg/injection, schedule: Q04DX003 (ip), vehicle: saline): 100 % of control | T/C (dose: 30.0 mg/kg/injection, schedule: Q01DX009 (ip), vehicle: saline): 150 % of control | T/C (dose: 33.0 mg/kg/injection, schedule: Q04DX003 (ip), vehicle: saline): 121 % of control | T/C (dose: 45.0 mg/kg/injection, schedule: Q01DX009 (ip), vehicle: saline): 90 % of control | T/C (dose: 50.0 mg/kg/injection, schedule: Q04DX003 (ip), vehicle: saline): 113 % of control | T/C (dose: 75.0 mg/kg/injection, schedule: Q04DX003 (ip), vehicle: saline): 169 % of control

Cc1c2c(cc3c1[nH]c1ccccc13)C(c1ccc(Cl)cc1)=NCC2
T/C [1]: 86 % of control

O=c1[nH]nnc2ccccc12
T/C [2]: 95 % of control | T/C (dose: 25.0 mg/kg/injection, schedule: Q04DX003 (ip), vehicle: Klucel (hydroxypropylcellulose) (HPC)): 100 % of control | T/C (dose: 37.5 mg/kg/injection, schedule: Q04DX003 (ip), vehicle: Klucel (hydroxypropylcellulose) (HPC)): 100 % of control | T/C [3]: 95 % of control | T/C (dose: 50.0 mg/kg/injection, schedule: Q04DX003 (ip), vehicle: Klucel (hydroxypropylcellulose) (HPC)): 104 % of control | T/C (dose: 75.0 mg/kg/injection, schedule: Q04DX003 (ip), vehicle: Klucel (hydroxypropylcellulose) (HPC)): 95 % of control | T/C [4]: 90 % of control | T/C (dose: 100.0 mg/kg/injection, schedule: Q04DX003 (ip), vehicle: Klucel (hydroxypropylcellulose) (HPC)): 100 % of control | T/C (dose: 150.0 mg/kg/injection, schedule: Q01DX009 (ip), vehicle: Klucel (hydroxypropylcellulose) (HPC)): 100 % of control | T/C (dose: 150.0 mg/kg/injection, schedule: Q04DX003 (ip), vehicle: Klucel (hydroxypropylcellulose) (HPC)): 109 % of control

COc1cc2cc(c1Cl)N(C)C(=O)CC(O)C1(C)OC1C(C)C1CC(O)(NC(=O)O1)C(OC)C=C/C=C(\C)C2 (stereo not given)
T/C (dose: 1.8 micrograms/kg/injection, schedule: Q01DX009 (ip), vehicle: saline + alcohol): 102 % of control | T/C (dose: 3.1 micrograms/kg/injection, schedule: Q01DX009 (ip), vehicle: saline + alcohol): 102 % of control and 115 % of control | T/C (dose: 6.2 micrograms/kg/injection, schedule: Q01DX009 (ip), vehicle: saline + alcohol): 102 % of control and 108 % of control | T/C (dose: 12.5 micrograms/kg/injection, schedule: Q01DX009 (ip), vehicle: saline + alcohol): 102 % of control and 108 % of control | T/C (dose: 25.0 micrograms/kg/injection, schedule: Q01DX009 (ip), vehicle: saline + alcohol): 94 % of control and 113 % of control | T/C (dose: 50.0 micrograms/kg/injection, schedule: Q01DX009 (ip), vehicle: saline + alcohol): 94 % of control and 112 % of control | T/C (dose: 100.0 micrograms/kg/injection, schedule: Q01DX009 (ip), vehicle: saline + alcohol): 94 % of control and 105 % of control | T/C (dose: 200.0 micrograms/kg/injection, schedule: Q01DX009 (ip), vehicle: saline + alcohol): 108 % of control and 112 % of control | T/C (dose: 400.0 micrograms/kg/injection, schedule: Q01DX009 (ip), vehicle: saline + alcohol): 102 % of control

O=[N+]([O-])c1ccc(N/N=C(\CCl)c2ccccc2)c([N+](=O)[O-])c1
T/C (dose: 25.0 mg/kg/injection, schedule: Q01DX001 (ip), vehicle: saline with Tween-80): 109 % of control | T/C (dose: 50.0 mg/kg/injection, schedule: Q01DX001 (ip), vehicle: saline with Tween-80): 104 % of control | T/C (dose: 100.0 mg/kg/injection, schedule: Q01DX001 (ip), vehicle: saline with Tween-80): 104 % of control

Nc1ccn(C2OC(CO)C(O)C2O)c(=O)n1 (stereo not given)
T/C (dose: 5.0 mg/kg/injection, schedule: Q01DX010 (ip), vehicle: saline): 190 % of control | T/C (dose: 13.0 mg/kg/injection, schedule: Q03HX024 (ip), vehicle: saline): 300 % of control | T/C (dose: 16.0 mg/kg/injection, schedule: Q01DX005 (ip), vehicle: saline): 170 % of control | T/C [5]: 150 % of control | T/C (dose: 60.0 mg/kg/injection, schedule: Q01DX010 (ip), vehicle: water): 90 % of control and 110 % of control | T/C (dose: 80.0 mg/kg/injection, schedule: Q01DX009 (ip), vehicle: water): 86 % of control | T/C (dose: 80.0 mg/kg/injection, schedule: Q01DX010 (ip), vehicle: water): 90 % of control | T/C [4]: 100 % of control | T/C (dose: 100.0 mg/kg/injection, schedule: Q01DX009 (ip), vehicle: water): 86 % of control and 90 % of control | T/C (dose: 100.0 mg/kg/injection, schedule: Q01DX010 (ip), vehicle: water): 90 % of control | T/C (dose: 160.0 mg/kg/injection, schedule: Q01DX010 (ip), vehicle: saline): 100 % of control | T/C (dose: 200.0 mg/kg/injection, schedule: Q01DX001 (ip), vehicle: saline): 100 % of control | T/C (dose: 200.0 mg/kg/injection, schedule: Q01DX009 (ip), vehicle: saline): 91 % of control and 110 % of control | T/C (dose: 256.0 mg/kg/injection, schedule: Q01DX005 (ip), vehicle: saline): 96 % of control | T/C (dose: 1500.0 mg/kg/injection, schedule: Q04DX003 (ip), vehicle: water): 200 % of control

CCCCCCOP(=O)(N1CC1)N1CC1
T/C [2]: 123 % of control | T/C [3]: 90 % of control | T/C (dose: 100.0 mg/kg/injection, schedule: Q04DX003 (ip), vehicle: saline with Tween-80): 113 % of control

CCNc1nc(Cl)nc(-c2cn(-c3ccccc3)c3ccccc23)n1
T/C (dose: 12.5 mg/kg/injection, schedule: Q01DX009 (ip), vehicle: Klucel (hydroxypropylcellulose) (HPC)): 100 % of control | T/C (dose: 25.0 mg/kg/injection, schedule: Q01DX009 (ip), vehicle: Klucel (hydroxypropylcellulose) (HPC)): 91 % of control | T/C (dose: 50.0 mg/kg/injection, schedule: Q01DX009 (ip), vehicle: Klucel (hydroxypropylcellulose) (HPC)): 86 % of control | T/C [1]: 91 % of control

Cc1c(Cl)cc(Cl)c(N)c1Cl
T/C (dose: 200.0 mg/kg/injection, schedule: Q04DX003 (ip), vehicle: saline with Tween-80): 100 % of control | T/C (dose: 400.0 mg/kg/injection, schedule: Q04DX003 (ip), vehicle: saline with Tween-80): 100 % of control

CCOC(=O)c1cc2nc3ccccn3c(=O)c2cc1N
T/C (dose: 100.0 mg/kg/injection, schedule: Q01DX009 (ip), vehicle: saline with Tween-80): 100 % of control | T/C (dose: 200.0 mg/kg/injection, schedule: Q01DX009 (ip), vehicle: saline with Tween-80): 91 % of control

COc1ccc(OC)c2c1C(SC)C(=O)N2C (stereo not given)
T/C (dose: 50.0 mg/kg/injection, schedule: Q04DX002 (ip), vehicle: saline with Tween-80): 100 % of control | T/C (dose: 100.0 mg/kg/injection, schedule: Q04DX002 (ip), vehicle: saline with Tween-80): 100 % of control | T/C (dose: 200.0 mg/kg/injection, schedule: Q04DX002 (ip), vehicle: saline with Tween-80): 107 % of control

COc1c2c(cc3oc4ccccc4c(=O)c13)CCCC2=O
T/C [5]: 90 % of control | T/C (dose: 200.0 mg/kg/injection, schedule: Q01DX005 (ip), vehicle: Klucel (hydroxypropylcellulose) (HPC)): 88 % of control
